Laboratory results as given in patent US20220040263A1, “COMPANION DIAGNOSTIC FOR COMBINATION LENALIDOMIDE AND ERYTHROPOIETIN TREATMENT” (H. Lee Moffitt Cancer Center and Research Institute, Inc., priority 2016, published 2022).

Assays:
[1] = biological target: T1, rhu-CDC25C (Homo sapiens, UniProt P30307); test: CDC25C phosphatase OMFP hydrolysis assay; assay type: biochemical
T1 construct: purchased BIOMOL
T1 sequence (P30307 1-473): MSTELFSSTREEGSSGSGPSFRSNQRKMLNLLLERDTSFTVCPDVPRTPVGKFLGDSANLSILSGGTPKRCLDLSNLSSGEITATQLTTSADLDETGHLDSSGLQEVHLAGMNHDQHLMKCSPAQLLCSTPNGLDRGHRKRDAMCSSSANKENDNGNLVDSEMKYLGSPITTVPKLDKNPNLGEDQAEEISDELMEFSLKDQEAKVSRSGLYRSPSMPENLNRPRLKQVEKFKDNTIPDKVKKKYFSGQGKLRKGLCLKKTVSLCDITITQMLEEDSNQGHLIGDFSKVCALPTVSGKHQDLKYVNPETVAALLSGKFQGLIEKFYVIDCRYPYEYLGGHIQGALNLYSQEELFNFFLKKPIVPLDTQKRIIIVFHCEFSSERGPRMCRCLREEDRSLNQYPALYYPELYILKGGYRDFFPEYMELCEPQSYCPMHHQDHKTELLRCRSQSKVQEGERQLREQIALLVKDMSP
Protocol: 200 U of rhu-CDC25C (BIOMOL) was incubated in assay buffer (100 mM Tris-HCL, pH 8.2, 40 mM NaCl, 1 mM DTT, 0.1% BSA, and 20% glycerol) for 1 hour at 37 C with the indicated inhibitors CC-5013, Thalidomide, and CDC25 Phosphatase Inhibitor, NSC, Calbiochem) at the concentrations indicated. The substrate OMFP (3-0-Methylfluorescein phosphate cyclohexylammonium salt, Sigma) was added at 500 μM and tubes were incubated for 60 minutes at 37° C. Samples were read on a spectrophotometer at 477 nm. Percent activity was calculated by subtracting background absorbance and dividing each sample by the CDC25C+control.
To determine if lenalidomide inhibits CDC25C phosphatase activity, rhu-CDC25C PTP inhibition by lenalidomide and thalidomide were compared to a CDC25C selective inhibitor using the 3-o-methylfluorescein phosphate (OMFP) hydrolysis assay [FIG. 10].

[2] = system: STAT5; test: EPO-induced phospho-STAT5 MFI in CD71+ primary MDS cells by flow cytometry; assay type: cell-based, human
Protocol: BM-MNC were serum deprived in IMDM and 0.4% BSA for 1 hour, then treated as described in FIG. 5. RHu-EPO stimulated cells were treated 5 U/ml×15 minutes at 37° C. Cells were fixed in BD Cytofix (Beckon Dickenson) ×10 minutes, washed in BD Stain Buffer then re-suspended in ice cold 90% methanol. After washing ×2, cells were stained with anti-pSTAT5-phycoerthryin (PE) conjugated antibody and CD71-allophycocyanin (APC) conjugated antibody [20 μg/10^6 cells]. Cells were washed ×2 with stain buffer before transfer to FACScan tubes and analysis on the FACScan flow cytometer. The gated CD71+ cell population accounted for 11.35% of BM-MNC. Results reflect phospho-STAT5:PE MFI in a representative patient specimen. Anti-pSTAT5, CD71-APC and CD34-APC antibodies were purchased from BD-Pharmingen.
To confirm that lenalidomide enhances STAT5 phosphorylation in erythroid precursors from primary BM specimens, BM specimens were evaluated from Low- or Intermediate-1 risk MDS by flow cytometry. As in the UT7 cell line, lenalidomide increased EPO-induced phosphorylation of STAT5 in CD71+ erythroid precursors, whereas lenalidomide alone had no effect on STAT5 phosphorylation [FIG. 3]. The STAT5 phosphorylation delta (PD), i.e., the increase in mean fluorescence intensity (MFI) for EPO-induced STAT5 phosphorylation with the addition of lenalidomide compared to EPO alone was 43.5 relative MFI units, representing a 24% increase in pSTAT5 MF.

[3] = system: Jak2 and STAT5 phosphorylation in UT7 cells; test: Jak2 and STAT5 phosphorylation in UT7 cells with JAK or Src kinase inhibitors (Western); assay type: cell-based
Protocol: 10×10^7 UT7 cells were serum starved then treated with SKI 606 or AG490 for 30 minutes, CC5013 for 2 hours, and stimulated with EPO (1 U/ml) for 10 minutes at 37° C. Cells were lysed and […] run on a 4-15% Gradient gel (Bio-rad). Antibodies included p-STAT5 (Upstate, 1:1000 in 5% TBS/milk), total STAT5 (Cell Signaling, 1:10000 in 5% TBS/milk), and p-Jak2 (Santa Cruz, 1:500 in 5% TBS/milk). Blots were developed with an ECL detection kit (Amersham).
To further evaluate the mechanism by which lenalidomide enhances the EPO-R signal, STAT5 activation was assessed in response to EPO+lenalidomide treatment using selective pharmacologic inhibitors of JAK (AG490) or Src ([…]) kinases [FIG. 4].

[4] = system: AML-EH5q cells; test: Apoptosis by Annexin-V/PI flow cytometry in AML-EH5q cells; assay type: cell-based; conditions: AML-EH5q (5q-deleted) cells, 24 hours
Protocol: AML-EH5q (FIG. 8A) and U937 (FIG. 8B) cells were exposed to lenalidomide, thalidomide or vehicle at the concentrations indicated for 24 hours in IMDM and 20% FBS and apoptosis assessed by flow cytometry using Annexin-V/PI staining. Briefly, cells are incubated for 20 minutes at room temperature in 50 mM HEPES (pH 7.4) and 150 mM NaCl containing 2 mM calcium chloride with a mixture of 1 μg/mLAnnexin V-FITC (Boehringer Mannhein, Mannhein, Germany) and 2.5 μg/mL propidium iodide (PI; Sigma-Aldrich) before analysis.
The hematologic effects of lenalidomide could derive from dual effects that are karyotype-dependent, i.e., (1) the potentiation of erythropoiesis in non-del5q erythroid precursors, and (2) selective suppression of del5q clones. To confirm that lenalidomide is selectively cytotoxic to del-5q clones, an AML cell line transformed from an MDS patient with isolated 5q31 deletion was cultivated and the cell line successfully maintained in suspension culture with recombinant myeloid growth factor supplementation. This cell line [designated AML-EH5q] is an AML cell line that harbors the isolated 5q-deletion. […] To evaluate the selectivity of lenalidomide cytotoxic for del5q clones, apoptotic response to lenalidomide and thalidomide was compared in AML-EH5q and U937 (non-del5q) cells by flow cytometry. […] Viability was unaffected at all concentrations for both agents in U937 cells.

- inhibition of CDC25C phosphatase activity [1]: potent and selective inhibitor
Structure (SMILES): Nc1cccc2c1CN(C1CCC(=O)NC1=O)C2=O (stereo not drawn) [lenalidomide, 3-(4-amino-1-oxo-1,3-dihydro-2H-isoindol-2-yl)piperidine-2,6-dione]
- EPO-induced phosphorylation of STAT5 ([2]; CD71+ erythroid precursors, Low- or Intermediate-1 risk MDS BM): increased
- STAT5 phosphorylation ([2]; CD71+ erythroid precursors, lenalidomide alone): no effect
- STAT5 phosphorylation delta (PD): increase in MFI for EPO-induced STAT5 phosphorylation with lenalidomide compared to EPO alone ([2]; CD71+ primary MDS cells, representative patient specimen): 43.5 relative MFI units
- increase in pSTAT5 MFI ([2]; EPO + lenalidomide compared to EPO alone, CD71+ cells): 24%
- EPO-induced Jak2-phosphorylation ([3]; lenalidomide + EPO (Lane 7)): further augmented
- Jak2-phosphorylation ([3]; lenalidomide alone (Lane 2)): increased
- induction of programmed cell death (apoptosis) [4]: concentration dependent induction of programmed cell death
- induction of programmed cell death (apoptosis) ([4]; listed as Lenalidomide): selectively induced cell death
